Read-outs that look alike come from different tables or passages of the source.
Legend:
TNFα = experiment: Cot Monocyte TNFα Cell Based Assay
Human Cot = Human Cot (Homo sapiens (Human), UniProt P41279); experiment: High Throughput Cot Biochemical Assay
Protocol: Human Cot enzyme activity was measured using KinEASE (Cisbio), a time-resolved fluorescence resonance energy transfer (TR-FRET) immunoassay. In this assay, Cot-catalyzes the phosporylation of a XL665-labeled peptide substrate. Europium conjugated phospho-tyrosine specific antibody binds the resulting phosphorylated peptide. Formation of phosphorylated peptide is quantified by TR-FRET with Europium as the donor and XL665 the acceptor in a 2-step endpoint assay. […] In brief, test compounds serially diluted in DMSO were delivered into Proxy white, low volume, 384 well plates using the Echo 550 acoustic liquid dispenser (Labcyte®). Cot enzyme and substrates were dispensed into assay plates using a Multi-Flo (Bio-Tek Instruments). The standard 5 μL reaction mixture contained 400 μM ATP, 1 μM STK3 peptide, 5 nM of Cot in reaction buffer (10 mM MOPS, pH 7.0, 0.02% NaN3, 0.5 mg/mL BSA, 10 mM MgOAc, 1 mM DTT, 0.025% NP-40, 1.5% glycerol) and 0.1% DMSO.

[1] = Homo sapiens, Monocyte, read-out: EC50 TNF, LPS-stimulated human monocytes, TNFα
[2] = IC50 HTRF, Cot HTRF (TR-FRET) biochemical assay
[3] = read-out: EC50 TNF, LPS-stimulated human monocytes, TNFα
[4] = read-out: IC50 HTRF, Cot HTRF (TR-FRET) biochemical assay
[5] = Homo sapiens, Monocyte, read-out: EC50 TNF, LPS-stimulated human monocytes, TNFα TR-FRET
[6] = IC50 HTRF, Cot HTRF (TR-FRET KinEASE) biochemical assay, 400 μM ATP

Human Cot, sequence (P41279 30-397): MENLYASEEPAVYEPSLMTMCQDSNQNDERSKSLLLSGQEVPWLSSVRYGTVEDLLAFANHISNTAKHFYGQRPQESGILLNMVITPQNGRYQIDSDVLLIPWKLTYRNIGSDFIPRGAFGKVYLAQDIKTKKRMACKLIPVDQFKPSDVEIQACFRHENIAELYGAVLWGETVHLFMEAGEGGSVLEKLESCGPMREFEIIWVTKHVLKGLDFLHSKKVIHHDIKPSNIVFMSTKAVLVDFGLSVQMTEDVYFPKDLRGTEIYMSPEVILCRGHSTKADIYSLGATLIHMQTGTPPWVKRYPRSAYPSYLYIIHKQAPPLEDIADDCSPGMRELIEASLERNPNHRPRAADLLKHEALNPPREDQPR

SMILES	EC50 (TNFα; [1])	IC50 (Human Cot; [2])	further results
Cc1ccc([C@H](Nc2cc(Cl)c3ncc(C#N)c(NCC(C)(C)C)c3c2)c2cn(C3(C(F)(F)F)CC3)nn2)c(F)n1 [Example 688, (S)-8-chloro-6-(((2-fluoro-6-methylpyridin-3-yl)(1-(1-(trifluoromethyl)-cyclopropyl)-1H-1,2,3-triazol-4-yl)methyl)amino)-4-(neopentylamino)quinoline-3-carbonitrile]	437 nM	30 nM	–
Cc1nc(F)ccc1[C@H](Nc1cc(Cl)c2ncc(C#N)c(NCC(C)(C)C)c2c1)c1cn(C2(C3CC3)CC2)nn1 [Example 547]	–	–	EC50 (TNFα; [3]): 33 nM; IC50 (Human Cot; [4]): 2 nM
Cc1nc(F)ccc1[C@H](Nc1cc(C#N)c2ncc(C#N)c(NCC(C)(C)C)c2c1)c1nnn(C2CC2)c1F [Example 681, (S)-6-(((1-cyclopropyl-5-fluoro-1H-1,2,3-triazol-4-yl)(6-fluoro-2-methylpyridin-3-yl)methyl)amino)-4-(neopentylamino)quinoline-3,8-dicarbonitrile]	26 nM	2 nM	–
COc1nccc2c([C@H](Nc3cc(Cl)c4ncc(C#N)c(NCC(C)(C)C)c4c3)c3cn(C(CF)CF)nn3)cccc12 [Example 933, (S)-8-chloro-6-(((1-(1,3-difluoropropan-2-yl)-1H-1,2,3-triazol-4-yl)(1-methoxylsoquinolin-5-yl)methyl)amino)-4-(neopentylamino)quinoline-3-carbonitrile]	–	–	EC50 (TNFα; read-out: EC50 TNF, LPS-stimulated human monocytes, TNFα TR-FRET): 247 nM; IC50 (Human Cot; read-out: IC50 HTRF, Cot HTRF (TR-FRET KinEASE) biochemical assay, 400 μM ATP): 29 nM
C[C@@H](n1cc([C@@H](Nc2cc(Cl)c3ncc(C#N)c(Nc4cnc(F)c(F)c4)c3c2)c2cccnc2)nn1)C(F)(F)F [Example 205, 8-chloro-4-((5,6-difluoropyridin-3-yl)amino)-6-(((S)-pyridin-3-yl(1-((R)-1,1,1-trifluoropropan-2-yl)-1H-1,2,3-triazol-4-yl)methyl)amino)quinoline-3-carbonitrile]	2050 nM	72 nM	–
Cn1ccc2c([C@H](Nc3cc(Cl)c4ncc(C#N)c(NCC(C)(C)C(F)(F)F)c4c3)c3cn(C4(C)CC4)nn3)cccc2c1=O [Example 781, (S)-8-chloro-6-(((2-methyl-1-oxo-1,2-dihydroiso-quinolin-5-yl)(1-(1-methylcyclopropyl)-1H-1,2,3-triazol-4-yl)methyl)amino)-4-((3,3,3-trifluoro-2,2-dimethylpropyl)amino)quinoline-3-carbonitrile]	–	–	EC50 (TNFα; [3]): 22 nM; IC50 (Human Cot; [4]): 2 nM
Cc1nc(F)ccc1[C@H](Nc1cc(C#N)c2ncc(C#N)c(NCC34CC(C3)C4)c2c1)c1cn(C2(C(F)F)CC2)nn1 [Example 849, (S)-4-((bicyclo[1.1.1]pentan-1-ylmethyl)amino)-6-(((1-(1-(difluoromethyl)-cyclopropyl)-1H-1,2,3-triazol-4-yl)(6-fluoro-2-methylpyridin-3-yl)methyl)amino)quinoline-3,8-dicarbonitrile]	–	–	EC50 (TNFα; [5]): 261 nM; IC50 (Human Cot; [6]): 16 nM
Cn1ccc2c([C@H](Nc3cc(C#N)c4ncc(C#N)c(NCC(C)(C)C(F)(F)F)c4c3)c3cn(C45CC(C4)C5)nn3)cccc2c1=O [Example 883, (S)-6-(((1-(bicyclo[1.1.1]pentan-1-yl)-1H-1,2,3-triazol-4-yl)(2-methyl-1-oxo-1,2-dihydroisoquinolin-5-yl)methyl)amino)-4-((3,3,3-trifluoro-2,2-dimethylpropyl)amino)quinoline-3,8-dicarbonitrile]	–	–	EC50 (TNFα; [5]): 13 nM; IC50 (Human Cot; [6]): 1 nM
Cc1nc(F)ccc1[C@H](Nc1cc(C#N)c2ncc(C#N)c(NCC3(C(F)(F)F)CCC3)c2c1)c1cn(C2(C(F)F)CC2)nn1 [Example 831, (S)-6-(((1-(1-(difluoromethyl)-cyclopropyl)-1H-1,2,3-triazol-4-yl)(6-fluoro-2-methylpyridin-3-yl)methyl)amino)-4-(((1-(trifluoromethyl)cyclobutyl)methyl)-amino)quinoline-3,8-dicarbonitrile]	–	–	EC50 (TNFα; [5]): 202 nM; IC50 (Human Cot; [6]): 8 nM
Cc1nc(F)ccc1[C@H](Nc1cc(Cl)c2ncc(C#N)c(Nc3cnc(F)c(F)c3)c2c1)c1cn(C2(C(F)F)CC2)nn1 [Example 742, (S)-8-chloro-6-(((1-(1-(difluoromethyl)cyclopropyl)-1H-1,2,3-triazol-4-yl)(6-fluoro-2-methylpyridin-3-yl)methyl)amino)-4-((5,6-difluoropyridin-3-yl)amino)quinoline-3-carbonitrile]	199 nM	17 nM	–
N#Cc1cnc2c(Cl)cc(N[C@@H](c3cscn3)c3cn(C4COC4)nn3)cc2c1Nc1ccc(F)c(Cl)c1 [Example 363, (S)-8-chloro-4-((3-chloro-4-fluorophenyl)amino)-6-(((1-(oxetan-3-yl)-1H-1,2,3-triazol-4-yl)(thiazol-4-yl)methyl)amino)quinoline-3-carbonitrile]	257 nM	4 nM	–
Cc1ncsc1[C@H](Nc1cc(Cl)c2ncc(C#N)c(Nc3cccc(Cl)c3F)c2c1)c1cn(C(C)C)nn1 [Example 252, (R)-8-chloro-4-((3-chloro-2-fluorophenyl)amino)-6-(((1-isopropyl-1H-1,2,3-triazol-4-yl)(4-methylthiazol-5-yl)methyl)-amino)quinoline-3-carbonitrile]	119 nM	6 nM	–
N#Cc1cnc2c(Cl)cc(N[C@@H](c3cocn3)c3c[nH]nn3)cc2c1N[C@@H](CO)c1ccccc1 [Example 214, 8-chloro-4-(((R)-2-hydroxy-1-phenylethyl)amino)-6-(((S)-o)(azol-4-yl(1H-1,2,3-triazol-4-yl)methyl)amino)quinoline-3-carbonitrile]	–	–	EC50 (TNFα; [3]): > 10000 nM; IC50 (Human Cot; [4]): > 10000 nM
CC(C)(C)CNc1c(C#N)cnc2c(C#N)cc(N[C@H](c3cn(C45CC(C4)C5)nn3)c3ccc(F)c4ncccc34)cc12 [Example 814, (S)-6-(((1-(bicyclo[1.1.1]pentan-1-yl)-1H-1,2,3-triazol-4-yl)(8-fluoroquinolin-5-yl)methyl)amino)-4-(neopentylamino)quinoline-3,8-dicarbonitrile]	–	–	EC50 (TNFα; [5]): 16 nM; IC50 (Human Cot; [6]): 2 nM
Cc1nc(F)ccc1[C@H](Nc1cc(C#N)c2ncc(C#N)c(NCC(C)(C)C)c2c1)c1cn(C2(C3CC3)CC2)nn1 [Example 621, (S)-6-(((1-([1,1′-bi(cyclopropan)]-1-yl)-1H-1,2,3-triazol-4-yl)(6-fluoro-2-methylpyridin-3-yl)methyl)amino)-4-(neopentylamino)quinoline-3,8-dicarbonitrile]	12 nM	1 nM	–
[2H]C([2H])([2H])C([2H])([2H])C(Nc1c(C#N)cnc2c(Cl)cc(N[C@@]([2H])(c3ccc(F)nc3)c3cn(C4CC4)nn3)cc12)c1ccccc1 (stereo partly drawn) [Example 115, 8-chloro-6-(((S)-(1-cyclopropyl-1H-1,2,3-triazol-4-yl)(6-fluoropyridin-3-yl)methyl-d)amino)-4-((1-phenylpropyl-2,2,3,3,3-d5)amino)quinoline-3-carbonitrile]	119 nM	5 nM	–
CC(C)(C)CNc1c(C#N)cnc2c(Br)cc(N[C@H](c3cn(C4CC4)nn3)c3cccc4nc(N)sc34)cc12 [Example 70, (S)-6-(((2-aminobenzo[d]thiazol-7-yl)(1-cyclopropyl-1H-1,2,3-triazol-4-yl)methyl)amino)-8-bromo-4-(neopentylamino)quinoline-3-carbonitrile]	804 nM	19 nM	–
Cn1nccc1[C@H](Nc1cc(C#N)c2ncc(C#N)c(NCC(C)(C)C)c2c1)c1cn(C2(C(F)F)CC2)nn1 [Example 677, (S)-6-(((1-(l-(difluoromethyl)-cyclopropyl)-1H-1,2,3-triazol-4-yl)(1-methyl-1H-pyrazol-5-yl)methyl)amino)-4-(neopentylamino)quinoline-3,8-dicarbonitrile]	–	–	EC50 (TNFα; [3]): 133 nM; IC50 (Human Cot; [4]): 4 nM
CC[C@@H](Nc1c(C#N)cnc2c(Cl)cc(N[C@@H](c3cccnc3)c3cn(C(C)C)nn3)cc12)c1ccccc1 [Example 193, 8-chloro-6-(((S)-(1-isopropyl-1H-1,2,3-triazol-4-yl)(pyridin-3-yl)methyl)amino)-4-(((R)-1-phenylpropyl)amino)quinoline-3-carbonitrile]	107 nM	2 nM	–
CC(C)(C)CNc1c(C#N)cnc2c(C#N)cc(N[C@H](c3cn(C4(C(N)=O)CC4)nn3)c3cccc4ncccc34)cc12 [Example 575, (S)-1-(4-(((3,8-dicyano-4-(neopentylamino)-quinolin-6-yl)amino)(quinolin-5-yl)methyl)-1H-1,2,3-triazol-1-yl)cyclopropane-1-carboxamide]	974 nM	1 nM	–
[2H][C@](Nc1cc(Cl)c2ncc(C#N)c(N[C@H](CC)c3ccccc3)c2c1)(c1ccc(F)nc1)c1cn(C(C)(C)C)nn1 [Example 118, 6-(((S)-(1-(tert-butyl)-1H-1,2,3-triazol-4-yl)(6-fluoropyridin-3-yl)methyl-d)amino)-8-chloro-4-(((R)-1-phenylpropyl)amino)quinoline-3-carbonitrile]	150 nM	6 nM	–
N#Cc1cnc2c(Cl)cc(NC(c3cccnc3)c3cn([C@@H]4CCN(C(=O)OCc5ccccc5)C4)nn3)cc2c1Nc1ccc(F)c(Cl)c1 (stereo partly drawn) [Example 400, benzyl (3R)-3-(4-(((8-chloro-4-((3-chloro-4-fluorophenyl)amino)-3-cyanoquinolin-6-yl)amino)(pyridin-3-yl)methyl)-1H-1,2,3-triazol-1-yl)pyrrolidine-1-carboxylate]	–	119 nM	–
CC(C)(C)CNc1c(C#N)cnc2c(C#N)cc(N[C@H](c3cn(C4(C(F)(F)F)CC4)nn3)c3cccc4ncsc34)cc12 [Example 66, (S)-6-((benzo[d]thiazol-7-yl(1-(1-(trifluoromethyl)cyclopropyl)-1H-1,2,3-triazol-4-yl)methyl)amino)-4-(neopentylamino)quinoline-3,8-dicarbonitrile]	–	3 nM	–

— US11066414B2, “Cot modulators and methods of use thereof” (Gilead Sciences, Inc., priority 2015, dated 2021)
